US11752095B2, “Medroxyprogesterone acetate injectable compositions and methods of use” (Family Health International, priority 2018, dated 2023)
Where two headings read alike, the source gives them in different places.

Assay: Pharmacokinetics in women (Example 23)
Format: in vivo
Details: composition with 400 mg/ml MPA; for Cmax / half-life / Tmax / concentration at 28 day / concentration at 91 day / concentration at 182 day: female, human, in vivo
Method: 12 women were sequentially administered medroxyprogesterone acetate. PK was evaluated for at least 182 days. The composition tested was an embodiment of the disclosure and included 400 mg/ml MPA,

AUC0-28, Mean (N 6): 9.84 ng·days/mL | AUC0-28, Median (N 6): 9.31 ng·days/mL | AUC0-28, Min-Max (N 6): 7.83 to 14.52 ng·days/mL | AUC0-91, Mean (N 6): 34.52 ng·days/mL | AUC0-91, Median (N 6): 34.87 ng·days/mL | AUC0-91, Min-Max (N 6): 23.41 to 44.06 ng·days/mL | AUC0-182, Mean (N 6): 60.21 ng·days/mL | AUC0-182, Median (N 6): 60.28 ng·days/mL | AUC0-182, Min-Max (N 6): 38.62 to 84.88 ng·days/mL | Cmax (N 6, read-out: Cmax, Mean): 0.53 ng/mL | Cmax (N 6, read-out: Cmax, Median): 0.55 ng/mL | Cmax (N 6, read-out: Cmax, Min-Max): 0.42 to 0.69 ng/mL | half-life (N 6, read-out: Half-life, Mean (converted)): 99.4 days | half-life (N 6, read-out: Half-life, Median (converted)): 104 days | half-life (N 6, read-out: Half-life, Min-Max): 22.9 to 166 days | Tmax (N 6, read-out: Tmax, Mean (converted)): 17.4 days | Tmax (N 6, read-out: Tmax, Median (converted)): 9.49 days | concentration at 28 day (day 28, N 6, read-out: C28, Mean): 0.36 ng/mL | concentration at 28 day (day 28, N 6, read-out: C28, Median): 0.36 ng/mL | concentration at 28 day (day 28, N 6, read-out: C28, Min-Max): 0.03 to 0.5 ng/mL | concentration at 91 day (day 91, N 6, read-out: C91, Mean): 0.41 ng/mL | concentration at 91 day (day 91, N 6, read-out: C91, Median): 0.41 ng/mL | concentration at 91 day (day 91, N 6, read-out: C91, Min-Max): 0.26 to 0.63 ng/mL | concentration at 182 day (day 182, N 6, read-out: C182, Mean): 0.22 ng/mL | concentration at 182 day (day 182, N 6, read-out: C182, Median): 0.22 ng/mL | concentration at 182 day (day 182, N 6, read-out: C182, Min-Max): 0.14 to 0.34 ng/mL
SMILES: CC(=O)O[C@]1(C(C)=O)CC[C@H]2[C@@H]3C[C@H](C)C4=CC(=O)CC[C@]4(C)[C@H]3CC[C@@]21C [medroxyprogesterone acetate]
